# Test results taken from US20250263395A1, “COMPOUNDS THAT MEDIATE PROTEIN DEGRADATION AND METHODS OF USE THEREOF” (Monte Rosa Therapeutics AG, priority 2022, published 2025).
# Experiments:
# CDK2 = CDK2 (Homo sapiens (Human), UniProt P24941); test: CDK2 NanoBiT assay (HiBiT-tagged CDK2 degradation); type: cell-based; conditions: HEK293, HEK293 clonal line, C-terminal HiBiT tag on CDK2, LgBiT; 24 hours
# Outline: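 HEK293 line with CRISPR knock-in C-terminal HiBiT-tagged CDK2 and stable LgBiT, preincubated 16 h with live-cell substrate, then compound-treated 24 h at 37° C, 5% CO2 (30 μM stock). Luminescence normalized to plate negative and positive controls; EC50 from 3-parameter logistic fit, Hill slope 1.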
# CRBN-DDB1 = CRBN-DDB1 (Homo sapiens (Human), UniProt Q96SW2); test: CRBN HTRF assay (Cy5-Thalidomide probe displacement); type: binding; conditions: CRBN-DDB1 2.5 nM, Cy5-Thalidomide 100 nM, 30 min; Ki from geometric mean IC50 by Cheng-Prusoff
# Outline: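 HTRF displacement of Cy5-thalidomide probe (100 nM) from His-CRBN-DDB1 (2.5 nM) with anti-His terbium cryptate, in HEPES/NaCl/TCEP/EDTA/Tween20 buffer. 10-point 1:3 compound series, 30 min at ambient temperature; signal normalised to DMSO and lenalidomide controls, IC50 fitted and Ki derived by Cheng-Prusoff.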
# Sequence of CRBN-DDB1 (Q96SW2 whole entry): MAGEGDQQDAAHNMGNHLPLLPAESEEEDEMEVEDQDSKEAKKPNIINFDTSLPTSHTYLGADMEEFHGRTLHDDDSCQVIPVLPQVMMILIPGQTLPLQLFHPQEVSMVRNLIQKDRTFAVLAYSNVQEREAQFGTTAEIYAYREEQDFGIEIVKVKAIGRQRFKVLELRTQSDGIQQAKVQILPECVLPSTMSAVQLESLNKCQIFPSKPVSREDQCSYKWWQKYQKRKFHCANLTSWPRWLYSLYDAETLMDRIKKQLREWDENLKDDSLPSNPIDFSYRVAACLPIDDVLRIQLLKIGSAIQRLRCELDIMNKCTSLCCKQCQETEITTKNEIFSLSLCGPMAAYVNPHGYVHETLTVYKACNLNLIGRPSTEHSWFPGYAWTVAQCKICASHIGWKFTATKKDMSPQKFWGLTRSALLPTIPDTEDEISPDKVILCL
# Sequence of CRBN-DDB1 (Q16531 whole entry partner): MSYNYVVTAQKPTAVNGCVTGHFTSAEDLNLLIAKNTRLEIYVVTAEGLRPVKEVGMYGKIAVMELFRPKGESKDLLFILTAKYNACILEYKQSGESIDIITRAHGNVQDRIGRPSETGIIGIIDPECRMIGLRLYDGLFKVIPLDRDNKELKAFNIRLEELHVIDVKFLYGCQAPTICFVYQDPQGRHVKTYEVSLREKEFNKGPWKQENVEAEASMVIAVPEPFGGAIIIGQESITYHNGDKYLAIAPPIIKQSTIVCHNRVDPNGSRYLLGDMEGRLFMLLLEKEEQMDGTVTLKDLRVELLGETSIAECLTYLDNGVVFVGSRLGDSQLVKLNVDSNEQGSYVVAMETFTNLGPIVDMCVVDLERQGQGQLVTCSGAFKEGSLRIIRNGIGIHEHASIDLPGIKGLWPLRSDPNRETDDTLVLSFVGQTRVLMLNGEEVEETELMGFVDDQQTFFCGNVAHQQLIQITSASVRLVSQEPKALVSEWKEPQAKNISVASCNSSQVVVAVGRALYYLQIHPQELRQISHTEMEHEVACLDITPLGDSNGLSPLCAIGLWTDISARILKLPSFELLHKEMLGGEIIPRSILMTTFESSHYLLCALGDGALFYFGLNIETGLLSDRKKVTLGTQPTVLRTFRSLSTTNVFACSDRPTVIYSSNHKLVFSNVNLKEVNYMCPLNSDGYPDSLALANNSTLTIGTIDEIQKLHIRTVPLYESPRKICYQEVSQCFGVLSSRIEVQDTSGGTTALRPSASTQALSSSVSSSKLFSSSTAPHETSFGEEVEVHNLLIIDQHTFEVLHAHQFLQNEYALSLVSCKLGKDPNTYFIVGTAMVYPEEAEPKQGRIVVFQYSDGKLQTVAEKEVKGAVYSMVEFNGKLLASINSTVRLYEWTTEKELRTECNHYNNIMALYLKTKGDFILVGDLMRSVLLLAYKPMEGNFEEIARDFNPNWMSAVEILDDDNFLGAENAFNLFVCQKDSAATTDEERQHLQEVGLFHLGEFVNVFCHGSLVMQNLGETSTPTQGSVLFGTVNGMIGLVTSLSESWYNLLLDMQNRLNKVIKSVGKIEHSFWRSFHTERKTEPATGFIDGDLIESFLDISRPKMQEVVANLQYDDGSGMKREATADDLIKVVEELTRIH
Dmax (CDK2) [%],Ki (CRBN-DDB1) [nM],SMILES
50 to 80,≤ 100,"CN(C(=O)N1CC(OC(=O)NC2CN(c3cc(F)c(C4CCC(=O)NC4=O)c(F)c3)C2)C1)c1ccccc1 (stereo not shown) [Compound 17, 1-(methyl(phenyl)carbamoyl)azetidin-3-yl (1-(4-(2,6-dioxopiperidin-3-yl)-3,5-difluorophenyl)azetidin-3-yl)carbamate]"
50 to 80,≤ 100,"CC(C)O[C@H]1C[C@@H](OC(=O)NC2CN(c3cc(F)c(C4CCC(=O)NC4=O)c(F)c3)C2)C1 (stereo partly shown) [Compound 39, (1s, 3s)-3-isopropoxycyclobutyl (1-(4-(2,6-dioxopiperidin-3-yl)-3,5-difluorophenyl)azetidin-3-yl)carbamate]"
50 to 80,≤ 100,"CN(C(=O)N1CC(OC(=O)NC2CN(c3cc(F)c(C4CCC(=O)NC4=O)c(F)c3)C2)C1)c1ccccc1Cl (stereo not shown) [Compound 71, 1-((2-chlorophenyl)(methyl)carbamoyl)azetidin-3-yl (1-(4-(2,6-dioxopiperidin-3-yl)-3,5-difluorophenyl)azetidin-3-yl)carbamate]"
10 to 50,≤ 100,"CN(C(=O)N1CC[C@@H](OC(=O)NC2CN(c3cc(F)c(C4CCC(=O)NC4=O)c(F)c3)C2)C1)C1CC1 (stereo partly drawn) [Compound 25, (R)-1-(cyclopropyl(methyl)carbamoyl)pyrrolidin-3-yl (1-(4-(2,6-dioxopiperidin-3-yl)-3,5-difluorophenyl)azetidin-3-yl)carbamate]"
> 80,≤ 100,"CC(C)(CCOC(=O)NC1CN(c2cc(F)c(C3CCC(=O)NC3=O)c(F)c2)C1)C1CC1 (stereo not shown) [Compound 65, 3-cyclopropyl-3-methylbutyl (1-(4-(2,6-dioxopiperidin-3-yl)-3,5-difluorophenyl)azetidin-3-yl)carbamate]"
50 to 80,100 to 1000,"O=C1CCC(c2c(F)cc(N3CC(NC(=O)OCCc4ccccc4)C3)cc2F)C(=O)N1 (stereo not shown) [Compound 34, phenethyl (1-(4-(2,6-dioxopiperidin-3-yl)-3,5-difluorophenyl)azetidin-3-yl)carbamate]"
50 to 80,100 to 1000,"O=C1CCC(c2c(F)cc(N3CC(Nc4ncn(C5CC6(CCC6)C5)n4)C3)cc2F)C(=O)N1 (stereo not shown) [Compound 105, 3-(2,6-difluoro-4-(3-((1-(spiro[3.3]heptan-2-yl)-1H-1,2,4-triazol-3-yl)amino)azetidin-1-yl)phenyl)piperidine-2,6-dione]"
> 80,≤ 100,"O=C1CCC(c2c(F)cc(N3CC(NC(=O)OC4CN(C(=O)N5CCc6ccccc65)C4)C3)cc2F)C(=O)N1 (stereo not shown) [Compound 9, 1-(indoline-1-carbonyl)azetidin-3-yl (1-(4-(2,6-dioxopiperidin-3-yl)-3,5-difluorophenyl)azetidin-3-yl)carbamate]"
10 to 50,≤ 100,"COc1c(N2CC(C)(Nc3nnc(C4CC5(CCC5)C4)o3)C2)ccc(C2CCC(=O)NC2=O)c1F (stereo not shown) [Compound 121, 3-(2-fluoro-3-methoxy-4-(3-methyl-3-((5-(spiro[3.3]heptan-2-yl)-1,3,4-oxadiazol-2-yl)amino)azetidin-1-yl)phenyl)piperidine-2,6-dione]"
> 80,≤ 100,"CN(C(=O)N1CC(OC(=O)NC2CN(c3cc(F)c(C4CCC(=O)NC4=O)c(F)c3)C2)C1)c1cccc(Cl)c1 (stereo not shown) [Compound 8, 1-((3-chlorophenyl)(methyl)carbamoyl)azetidin-3-yl (1-(4-(2,6-dioxopiperidin-3-yl)-3,5-difluorophenyl)azetidin-3-yl)carbamate]"
> 80,≤ 100,"CC1(NC(=O)OCC2CC3(CCC3)C2)CN(c2cc(F)c(C3CCC(=O)NC3=O)c(F)c2)C1 (stereo not shown) [Compound 56, spiro[3.3]heptan-2-ylmethyl (1-(4-(2,6-dioxopiperidin-3-yl)-3,5-difluorophenyl)-3-methylazetidin-3-yl)carbamate]"
50 to 80,100 to 1000,"Cc1cc(N2CC(NC(=O)OC3CN(C(=O)N(C)C4CC4)C3)C2)cc(Cl)c1C1CCC(=O)NC1=O (stereo not shown) [Compound 87, 1-(cyclopropyl(methyl)carbamoyl)azetidin-3-yl (1-(3-chloro-4-(2,6-dioxopiperidin-3-yl)-5-methylphenyl)azetidin-3-yl)carbamate]"
50 to 80,≤ 100,"COc1c(N2CC(C)(Nc3nnc(-c4ccc(OC(F)(F)F)cc4)o3)C2)ccc(C2CCC(=O)NC2=O)c1F (stereo not shown) [Compound 136, 3-(2-fluoro-3-methoxy-4-(3-methyl-3-((5-(4-(trifluoromethoxy)phenyl)-1,3,4-oxadiazol-2-yl)amino)azetidin-1-yl)phenyl)piperidine-2,6-dione]"
> 80,≤ 100,"COc1ccc(-c2nnc(NC3CN(c4cc(F)c(C5CCC(=O)NC5=O)c(F)c4)C3)o2)cc1 (stereo not shown) [Compound 98, 3-(2,6-difluoro-4-(3-((5-(4-methoxyphenyl)-1,3,4-oxadiazol-2-yl)amino)azetidin-1-yl)phenyl)piperidine-2,6-dione]"

# The next lines start with the compound.
SMILES,Dmax (CDK2) [%],Ki (CRBN-DDB1) [nM]
"O=C1CCC(c2c(F)cc(N3CC(NC(=O)OC4CN(c5ccccn5)C4)C3)cc2F)C(=O)N1 (stereo not shown) [Compound 83, 1-(pyridin-2-yl)azetidin-3-yl (1-(4-(2,6-dioxopiperidin-3-yl)-3,5-difluorophenyl)azetidin-3-yl)carbamate]",50 to 80,≤ 100
"C[C@@H]1[C@@H](Nc2nnc(C34CC(C(F)(F)F)(C3)C4)o2)CN1c1cc(F)c(C2CCC(=O)NC2=O)c(F)c1 (stereo partly drawn) [Compound 140, 3-(2,6-difluoro-4-((2R,3S)-2-methyl-3-((5-(3-(trifluoromethyl)bicyclo[1.1.1]pentan-1-yl)-1,3,4-oxadiazol-2-yl)amino)azetidin-1-yl)phenyl)piperidine-2,6-dione]",50 to 80,100 to 1000
"CC(C)(C)[Si](C)(C)O[C@H]1C[C@@H](COC(=O)NC2CN(c3cc(F)c(C4CCC(=O)NC4=O)c(F)c3)C2)C1 (stereo partly shown) [Compound 49, ((1s, 3s)-3-((tert-butyldimethylsilyl)oxy)cyclobutyl)methyl (1-(4-(2,6-dioxopiperidin-3-yl)-3,5-difluorophenyl)azetidin-3-yl)carbamate]",> 80,100 to 1000
"O=C1CCC(c2c(F)cc(N3CC(Nc4nnc(CCC5CC5)o4)C3)cc2F)C(=O)N1 (stereo not shown) [Compound 127, 3-(4-(3-((5-(2-cyclopropylethyl)-1,3,4-oxadiazol-2-yl)amino)azetidin-1-yl)-2,6-difluorophenyl)piperidine-2,6-dione]",10 to 50,≤ 100
"COc1cccc(N(C)C(=O)C23CC(OC(=O)NC4CN(c5cc(F)c(C6CCC(=O)NC6=O)c(F)c5)C4)(C2)C3)c1 (stereo not shown) [Compound 130, 3-((3-methoxyphenyl)(methyl)carbamoyl)bicyclo[1.1.1]pentan-1-yl (1-(4-(2,6-dioxopiperidin-3-yl)-3,5-difluorophenyl)azetidin-3-yl)carbamate]",50 to 80,≤ 100
"Cc1cccc(N2CC(OC(=O)NC3CN(c4cc(F)c(C5CCC(=O)NC5=O)c(F)c4)C3)C2)n1 (stereo not shown) [Compound 80, 1-(6-methylpyridin-2-yl)azetidin-3-yl (1-(4-(2,6-dioxopiperidin-3-yl)-3,5-difluorophenyl)azetidin-3-yl)carbamate]",50 to 80,≤ 100
"Cc1ccc(N(C)C(=O)N2CC(OC(=O)NC3CN(c4cc(F)c(C5CCC(=O)NC5=O)c(F)c4)C3)C2)c(C)c1 (stereo not shown) [Compound 116, 1-((2,4-dimethylphenyl)(methyl)carbamoyl)azetidin-3-yl (1-(4-(2,6-dioxopiperidin-3-yl)-3,5-difluorophenyl)azetidin-3-yl)carbamate]",10 to 50,≤ 100
"O=C1CCC(c2c(F)cc(N3C[C@H](Nc4nnc(C5CC6(CCC6)C5)o4)CC3=O)cc2F)C(=O)N1 (stereo partly drawn) [Compound 92, 3-(2,6-difluoro-4-((R)-2-oxo-4-((5-(spiro[3.3]heptan-2-yl)-1,3,4-oxadiazol-2-yl)amino)pyrrolidin-1-yl)phenyl)piperidine-2,6-dione]",50 to 80,≤ 100
"CN(C(=O)N1CC(OC(=O)NC2CN(c3cc(F)c(C4CCC(=O)NC4=O)c(F)c3)C2)C1)c1ccc(Cl)cc1 (stereo not shown) [Compound 138, 1-((4-chlorophenyl)(methyl)carbamoyl)azetidin-3-yl (1-(4-(2,6-dioxopiperidin-3-yl)-3,5-difluorophenyl)azetidin-3-yl)carbamate]",50 to 80,≤ 100
"CC(C)(C)O[C@H]1C[C@@H](OC(=O)NC2CN(c3cc(F)c(C4CCC(=O)NC4=O)c(F)c3)C2)C1 (stereo partly shown) [Compound 46, (1s, 3s)-3-(tert-butoxy)cyclobutyl (1-(4-(2,6-dioxopiperidin-3-yl)-3,5-difluorophenyl)azetidin-3-yl)carbamate]",50 to 80,≤ 100
"CN(C)C(=O)N1CCC(OC(=O)NC2CN(c3cc(F)c(C4CCC(=O)NC4=O)c(F)c3)C2)CC1 (stereo not shown) [Compound 19, 1-(dimethylcarbamoyl)piperidin-4-yl (1-(4-(2,6-dioxopiperidin-3-yl)-3,5-difluorophenyl)azetidin-3-yl)carbamate]",10 to 50,≤ 100
"O=C1CCC(c2c(Cl)cc(N3CC(NC(=O)OCC4CC5(CCC5)C4)C3)cc2Cl)C(=O)N1 (stereo not shown) [Compound 28, spiro[3.3]heptan-2-ylmethyl (1-(3,5-dichloro-4-(2,6-dioxopiperidin-3-yl)phenyl)azetidin-3-yl)carbamate]",> 80,≤ 100
